pEC50: −log10 of the molar value. “Also recorded” adds a separate entry of the source.
Tests used:
FAS or TRAIL receptors = experiment: Surface expression of death receptors by flow cytometry; assay type: cell-based; details: PPC-1 cells
Source text: Furthermore, since these compounds sensitize to both FAS and TRAIL, they presumably act distal to death receptors.

FLIP = FLIP protein immunoblot; assay type: cell-based, human; details: for levels of FLIP protein (long isoform): PPC-1 cells, with or without CH-11, 24 hours, immunoblot
Description: Immunoblot analysis. Protein extracts were obtained by washing cells with phosphate-buffered saline (PBS) [pH 7.4] and suspending the cells in lysis buffer [10 mM Tris (pH 7.4), 150 mM NaCl, 0.1% Triton X-100, 0.5% sodium deoxycholate, and 5 mM EDTA] containing protease inhibitors (Complete tablets; Roche, Indianapolis, Ind.). Immunoblot assays were performed as described in Carter et al. (Blood 105:4043-4050, 2005). Briefly, equal amounts of protein as determined by a Bradford assay (Bradford, Anal. Biochem. 72:248-54, 1976) were subjected to SDS-PAGE (4-20% gradient gels from ISC BioExpress, Kaysville, Utah), followed by transfer to nitrocellulose membranes. Membranes were incubated with mouse monoclonal anti-human FLIP (NF6 clone) (1:500 v/v) (Alexis, San Diego, Calif.), 1:1,000 (v/v) anti-aspase-8 clone 5F7 (Upstate) and mouse monoclonal anti-tubulin (1:2000 v/v) (Sigma Inc). Secondary antibodies consisted of horseradish peroxidase-conjugated goat anti-rabbit IgG or goat anti-mouse IgG (Bio-Rad, Hercules, Calif.). Detection was performed by the enhanced chemiluminescence method (Pierce, Rockford, Ill.).
Effects of sensitizing compounds on FLIP protein. Since FAS-sensitizing compounds 6094911 and 5809354 modulate the extrinsic pathway downstream of TNF-family death receptors but upstream of effector caspases, the effects of those compounds on expression of FLIP, an intracellular antiapoptotic protein that binds caspases-8 and -10 and is capable of suppressing death receptor signaling at a proximal point within the extrinsic pathway, was examined. For these experiments, PPC-1 cells were treated with sensitizing compounds in the presence or absence of CH-11 antibody, then cell lysates were prepared 24 hours later, and analyzed by immunoblotting for FLIP.
The levels of the short isoform of FLIP were less than 5% of total FLIP protein as measured by immunoblotting and quantitative densitometry. Therefore, given the very low levels of the short isoform, the analysis was limited to the effects of the compounds on the long isoform of FLIP.

PPC-1 cells = experiment: PPC-1 cell viability (MTT) with or without CH-11 anti-FAS antibody; assay type: cell-based; details: for direct toxicity: compound alone, concentrations up to 80 μM
Description: High throughput screening. Screens were performed using a fully integrated, programmable robotic liquid handling system (Biomek® FX, Beckman-Coulter Inc., Fullerton, Calif.), with integrated plate reader (LJL analyst HT 96-384, Sunnyvale, Calif.) and environmentally controlled plate carousel set at 37° C. and 5% CO2:95% air. PPC-1 cells (1×10^4) were seeded overnight into 96 well, flat-bottom plates (Costar, Cambridge, Mass.) in 100 μL of medium containing 2.5% FCS. The next day, aliquots from the 50,000 compound Diversa library were added at a final concentration of 7.5 μg/mL (about 25 μM) in a final concentration of 0.5% (v:v) dimethylsulfoxide (DMSO). CH-11 antibody (100 ng/mL) was then added, and the cells were incubated for 24 hours before assessing cell viability by a 3-(4,5-Dimethylthiazol-2-yl)-2,5-diphenyltetrazolium Bromide (MTT) dye reduction assay (Sigma).
Cell death assays. Cell viability was measured by MTT and MTS assays, essentially as described in Schimmer et al. (Cancer Cell 5:25-35, 2004). Absorbance readings were plotted against a standard curve to derive the corresponding cell number, and cell viability was expressed as a percentage relative to untreated cells. Apoptosis was measured by flow cytometric analysis of Annexin V surface expression after staining cells with FITC-anti-Annexin V and propidium iodide (PI) (Biovision, Mountain View, Calif.), as described in Pedersen et al. (Blood 100:2965-72, 2002).
Statistics. Cytotoxicity induced by compounds used in combination with conventional agents (e.g., CH-11, TRAIL, VP-16 and staurosporine) was evaluated for evidence of synergy toxicity by comparing the slopes of the dose-response curves. If the combination of the potential sensitizing compound with the conventional agent increased the slope of the dose-response curve compared to the slopes of either the sensitizer or the conventional agent alone, then the interaction was considered synergistic. […] Statistical significance was defined as a p<0.01, using two-sided tests. Synergy was confirmed by performing multiple drug dose-effect calculations using the Median Effect methods as described in Chou (“The Median-Effect Principle and the Combination Index for Quantitation of Synergism and Antagonism.” In: D. C. Rideout and T. C. Chou (eds.), Synergism and Antagonism in Chemotherapy, pp. 61-102: Academic Press, Inc., 1991).
Identification of small molecule FAS sensitizers. Resistance to death receptor ligands may permit malignant cells to escape immune surveillance and limit the clinical efficacy of recombinant death receptor ligands such as TRAIL. To identify small molecules that restore sensitivity to death receptor ligands, a cell-based high throughput screen was performed using the FAS and TRAIL-resistant prostate cancer cell line PPC-1 and a commercially available 50,000 compound library. The screens were performed in 96 well plates, to which compounds were added at 7.5 μg/ml (about 25 μM), followed by agonistic anti-FAS monoclonal antibody CH-11 (100 ng/mL). Cell viability was measured 24 hours later by MTT assay. […] The coefficient of variation (CV) for PPC-1 cells treated with CH-11 alone was determined to be 5%, based on 90 replicate determinations. A 50% decrease in cell viability was used as a cut-off for scoring hits.
From the primary screen of 50,000 compounds, 313 reproducible hits were obtained. To determine whether any of the 313 compounds were toxic molecules as opposed to FAS-sensitizers, the 313 compounds were evaluated in secondary screens where PPC-1 cells were treated with increasing concentrations of the compounds in the presence or absence of CH-11 antibody. Through these secondary screens, nine sensitizers were identified that increased CH-11-mediated killing above the cell death produced by treatment of the cells with the compound alone (Table 1). […]

ten tumor cell lines = experiment: CH-11 killing of a spectrum of malignant cell lines; assay type: cell-based; details: increasing concentrations with or without CH-11
Description: Effects of small molecule sensitizers on CH-11 killing of a spectrum of malignant cell lines. To assess the spectrum of activity of the small molecule FAS sensitizers, an additional nine malignant cell lines derived from breast, ovarian, and prostate carcinomas were treated with increasing concentrations of the sensitizers in the presence or absence of CH-11. […] None of the other compounds sensitized more than four of ten tumor lines to CH-11. […] Also, all of the non-responding cell lines, except Colo 205, had detectable levels of FLIP by immunoblotting. Thus, the failure of 609411 and 5809354 to sensitize these tumor lines to anti-FAS antibody was not due to either lack of FAS expression or absence of FLIP, with rare exception.

## CCn1c(=N)n(CC(=O)c2cc(C(C)(C)C)c(O)c(C(C)(C)C)c2)c2ccccc21 [compound 5569100, 1-(3,5-Di-tert-butyl-4-hydroxy-phenyl)-2-(3-ethyl-2-imino-2,3-dihydro-benzoimidazol-1-yl)-ethanone]
FAS or TRAIL receptors
  surface expression of FAS or TRAIL receptors: did not change
FLIP
  levels of FLIP protein (long isoform): decreased levels of FLIP protein; also recorded: reduced FLIP expression
PPC-1 cells; Homo sapiens, PPC-1, PPC1 cells with anti-FAS antibody, read-out: EC50 as a FAS-sensitizer in PPC1 cells
  pEC50: 5.25
PPC-1 cells; PPC1 cells
  potency as a FAS-sensitizer relative to 5541203: approximately 5 times
PPC-1 cells; PPC1 cells, without anti-FAS antibody
  toxicity when added alone relative to 5541203: three times more toxic
PPC-1 cells; PPC-1 cells, combined with CH-11
  synergy with CH-11, median-dose combination index (CI): did not demonstrate synergy

## O=C(CCCOc1ccc(Cl)cc1Cl)NO [compound 5809354, 4-(2,4-dichlorophenoxy)-N-hydroxybutanamide]
FAS or TRAIL receptors
  surface expression of FAS or TRAIL receptors: did not change
FLIP
  levels of FLIP protein (long isoform): decreased levels of FLIP protein
FLIP; non-responding cell lines DU145 and MDA-MB-468
  levels of FLIP: decreased
Ten tumor cell lines
  tumor cell lines sensitized to CH-11: sensitized the same tumor lines with the exception of HT29
PPC-1 cells; PPC-1 cells
  direct toxicity: little direct toxicity

## CC(=O)CC(=O)Nc1ccc(Cl)c(C(F)(F)F)c1 [compound 6094911, N-[4-chloro-3-(trifluoromethyl)phenyl]-3-oxobutanamide]
FAS or TRAIL receptors
  surface expression of FAS or TRAIL receptors: did not change
FLIP
  levels of FLIP protein (long isoform): did not alter levels of FLIP protein
Ten tumor cell lines
  tumor cell lines sensitized to CH-11: sensitized four of ten tumor cell lines to CH-11; also recorded: sensitizing 4 of 10 tumor lines; also recorded: enhanced FAS-induced killing of several tumor cell lines
PPC-1 cells; PPC-1 cells
  direct toxicity: little direct toxicity

— patent US20080206287A1, “Use of cyclosporin A to sensitize resistant cancer cells to death receptor ligands” (priority 2006, published 2008)
